Patent publication US9024041B2, “P38 MAP kinase inhibitors” (Respivert Ltd., priority 2010, dated 2015)

How the values were obtained:
[1] = system: Poly I:C-induced ICAM-1 expression in BEAS2B cells; assay: Poly I:C-induced ICAM-1 induction in BEAS2B cells; type: cell-based; details: Homo sapiens, BEAS-2B, poly I:C 1 μg/mL, 18 hr, read-out: PolyI:C/ICAM1 IC50 BEAS2B
Procedure: Cellular Potency as Determined by Poly I:C-Induced ICAM-1 Induction in BEAS2B Cells
Poly I:C (1 μg/mL) (Invivogen Ltd., San Diego, Calif.) was transfected into BEAS2B cells (human bronchial epithelial cells, ATCC) with Oligofectamine (Invitrogen, Carlsbad, Calif.). Cells were pre-incubated with final concentrations of test compounds for 2 hr and the level of ICAM1 expression on the cell surface was determined by cell-based ELISA. At a time point 18 hr after poly I:C transfection, cells were fixed with 4% formaldehyde in PBS and then endogenous peroxidase was quenched by the addition of 0.1% sodium azide and 1% hydrogen peroxide. Cells were washed with wash-buffer (0.1% Tween in PBS: PBS-Tween). and after blocking the wells with 5% milk in PBS-Tween for 1 hr, the cells were incubated with anti-human ICAM-1 antibody (Cell Signaling Technology, Danvers, Mass.) in 1% BSA PBS overnight at 4° C. The cells were washed with PBS-Tween and incubated with the secondary antibody (HRP-conjugated anti-rabbit IgG, Dako Ltd., Glostrup, Denmark). The ICAM-1 signal was detected by adding substrate and reading the absorbance at 450 nm against a reference wavelength of 655 nm using a spectrophotometer. The cells were then washed with PBS-Tween and total cell numbers in each well were determined by reading absorbance at 595 nm after Crystal Violet staining and elution by 1% SDS solution. The measured OD 450-655 readings were corrected for cell number by dividing with the OD595 reading in each well. The inhibition of ICAM-1 expression was calculated at each concentration of test compound by comparison with vehicle control. The 50% inhibitory concentration (IC50) was determined from the resultant concentration-response curve.

[2] = system: LPS-induced IL-8 release in d-U937 cells; assay: LPS-induced IL-8 release in d-U937 cells; type: cell-based; details: Homo sapiens, dU937, 0.1 μg/mL LPS, 4 hr
Procedure: (§1) Cellular Potency as Determined by LPS-Induced TNFα/IL-8 Release in d-U937Cells
(§2) U937 cells, a human monocytic cell line, were differentiated to macrophage-type cells by incubation with phorbol myristate acetate (PMA; 100 ng/mL) for 48 to 72 hr. Cells were pre-incubated with final concentrations of test compound for 2 hr and were then stimulated with 0.1 μg/mL of LPS (from E. Coli: O111:B4, Sigma) for 4 hr. The supernatant was collected for determination of TNFα and IL-8 concentrations by sandwich ELISA (Duo-set, R&D systems). […] The relative 50% effective concentration (REC50) was determined from the resultant concentration-response curve. The inhibition of IL-8 production was calculated at each concentration of test compound by comparison with vehicle control. The 50% inhibitory concentration (IC50) was determined from the resultant concentration-response curve.

[3] = target: T1, Recombinant, phosphorylated p38 MAPKγ (MAPK12:Invitrogen) (Homo sapiens, UniProt P53778); assay: p38 MAPKγ enzyme inhibition assay (FRET, Z-LYTE); type: biochemical; details: 2 hr pre-incubation, ATP 100 μM; read-out: Enzyme Inhibition IC50 p38γ
T1 construct: purchased Invitrogen
T1 sequence (P53778 1-367): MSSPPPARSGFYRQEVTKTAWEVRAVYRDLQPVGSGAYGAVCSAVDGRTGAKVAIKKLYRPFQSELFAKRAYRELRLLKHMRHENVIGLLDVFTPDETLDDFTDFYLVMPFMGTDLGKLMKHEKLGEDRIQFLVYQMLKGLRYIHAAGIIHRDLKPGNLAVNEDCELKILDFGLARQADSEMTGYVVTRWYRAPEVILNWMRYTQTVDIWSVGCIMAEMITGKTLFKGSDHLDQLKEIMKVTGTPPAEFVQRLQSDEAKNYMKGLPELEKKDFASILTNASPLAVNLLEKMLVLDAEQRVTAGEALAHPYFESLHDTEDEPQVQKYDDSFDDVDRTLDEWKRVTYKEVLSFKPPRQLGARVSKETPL

[4] = system: LPS-induced TNFα release in THP-1 cells; assay: LPS-induced TNFα release in THP-1 cells; type: cell-based; details: Homo sapiens, 3 μg/mL LPS, 4 hr
Procedure: Cellular Potency as Determined by LPS-Induced TNFα Release in THP-1 Cells
THP-1 cells, a human monocytic cell line, were stimulated with 3 μg/mL of LPS (from E. Coli; 0111:B4, Sigma) for 4 hr and the supernatant collected for determination of the TNFα concentration by sandwich ELISA (Duo-set, R&D systems). The inhibition of TNFα production was calculated at each concentration by comparison with vehicle control. The 50% inhibitory concentration (IC50) was determined from the resultant concentration-response curve.

[5] = system: Differentiated U937 cells; assay: MTT assay: cell viability on exposure to test compounds; type: cell-based, human; details: percentage loss of cell viability vs vehicle, 1 μg/mL; for MTT Assay (Viability) 4 h d-U937: 5% FCS; for MTT Assay (Viability) 24 h d-U937: 10% FCS
Procedure: MTT Assay: Determination of Cell Viability on Exposure to Test Compounds
Differentiated U937 cells were pre-incubated with each test compound under two protocols: the first for 4 hr in 5% FCS and the second in 10% FCS for 24 h. The supernatant was replaced with 200 μL of new media and 10 μL of MTT stock solution (5 mg/mL) was added to each well. After incubation for 1 hr the media were removed, 200 μL of DMSO was added to each well and the plates were shaken lightly for 1 hr prior to reading the absorbance at 550 nm. The percentage loss of cell viability was calculated for each well relative to vehicle (0.5% DMSO) treatment. Consequently an apparent increase in cell viability for drug treatment relative to vehicle is tabulated as a negative percentage.

[6] = system: LPS-induced TNFα release in d-U937 cells; assay: LPS-induced TNFα release in d-U937 cells; type: cell-based; details: Homo sapiens, dU937, 4 h; read-out: LPS/TNFα REC50 d-U937
Procedure: as §1, §2

[7] = target: T2, p38 MAPKα isoform (MAPK14: Invitrogen) (Homo sapiens, UniProt Q16539); assay: p38 MAPKα enzyme inhibition assay (FRET, Z-LYTE, via MAPKAP-K2 activation); type: biochemical; details: 2 hr pre-incubation, ATP 10.0 μM; read-out: Enzyme Inhibition IC50 p38α
T2 construct: purchased Invitrogen
T2 sequence (Q16539 whole entry, canonical isoform): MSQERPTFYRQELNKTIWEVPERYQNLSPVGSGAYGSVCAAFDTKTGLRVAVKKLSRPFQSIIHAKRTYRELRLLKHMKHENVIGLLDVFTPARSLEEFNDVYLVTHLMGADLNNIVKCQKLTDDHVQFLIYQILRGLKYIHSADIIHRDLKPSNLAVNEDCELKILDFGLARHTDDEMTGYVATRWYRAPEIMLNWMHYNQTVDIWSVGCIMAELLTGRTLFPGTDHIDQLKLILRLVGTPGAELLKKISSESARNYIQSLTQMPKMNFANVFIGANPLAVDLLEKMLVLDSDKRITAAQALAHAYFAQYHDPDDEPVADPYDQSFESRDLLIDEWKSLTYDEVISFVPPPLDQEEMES

Compound	IC50 [2]	IC50 [3]	IC50 [4]	EC50 [6]	IC50 [7]	IC50 [1]	MTT Assay (Viability) 4 h d-U937 [5]	MTT Assay (Viability) 24 h d-U937 [5]
COCC(=O)Nc1cc(Oc2ccc(NC(=O)Nc3cc(C(C)(C)C)nn3-c3ccc(OC)cc3)c3ccccc23)ccn1 [Example 3, N-(4-((4-(3-(3-(tert-Butyl)-1-(4-methoxyphenyl)-1H-pyrazol-5-yl)ureido)naphthalen-1-yl)oxy)pyridin-2-yl)-2-methoxyacetamide]	3.3 nM	58.2 nM	1.5 nM	1.9 nM	15.5 nM	5.7 nM	−28.4%	−51.5%
COc1ccc(-n2nc(C(C)(C)C)cc2NC(=O)Nc2ccc(Oc3ccnc(NC(=O)CO)c3)c3ccccc23)cc1 [Example 4, N-(4-(4-(3-(3-tert-Butyl-1-(4-methoxyphenyl)-1H-pyrazol-5-yl)ureido)naphthalen-1-yloxy)pyridin-2-yl)-2-hydroxyacetamide]	3 nM	150 nM	1.3 nM	0.04 nM	4.6 nM	4 nM	−3.9%	−38.2%
COc1ccc(-n2nc(C(C)(C)C)cc2NC(=O)Nc2ccc(Oc3ccnc(NC(=O)NC4CC4)c3)c3ccccc23)cc1 [Example 6, 1-(3-(tert-Butyl)-1-(4-methoxyphenyl)-1H-pyrazol-5-yl)-3-(4-(2-(3-cyclopropylureido)pyridin-4-yloxy)naphthalen-1-yl)urea]	2.6 nM	51.3 nM	1.2 nM	19.4 nM	17.8 nM	1 nM	−10.7%	−50.1%
COCC(=O)Nc1cc(Oc2ccc(NC(=O)Nc3cc(C(C)(C)C)nn3-c3ccc(OC)c(OC)c3)c3ccccc23)ccn1 [Example 11, N-(4-(4-(3-(3-tert-Butyl-1-(3,4-dimethoxyphenyl)-1H-pyrazol-5-yl)ureido)naphthalen-1-yloxy)pyridin-2-yl)-2-methoxyacetamide]	3.6 nM	151 nM	0.6 nM	0.2 nM	4 nM	2.5 nM	−9.3%	−0.8%
CC(C)(C)c1cc(NC(=O)Nc2ccc(Oc3ccnc(NC(=O)N4CCOCC4)c3)c3ccccc23)n(-c2ccc(O)c(Cl)c2)n1 [Example 12, N-(4-((4-(3-(3-(tert-Butyl)-1-(3-chloro-4-hydroxyphenyl)-1H-pyrazol-5-yl)ureido)naphthalen-1-yl)oxy)pyridin-2-yl)morpholine-4-carboxamide]	8.4 nM	147 nM	3.3 nM	0.4 nM	2.7 nM	3.2 nM	−6.2%	−42.9%
CSc1ccc(-n2nc(C(C)(C)C)cc2NC(=O)Nc2ccc(Oc3ccnc(NC(=O)N4CCCC4)c3)c3ccccc23)cc1 [Example 14, N-(4-(4-(3-(3-tert-Butyl-1-(4-(methylthio)phenyl)-1H-pyrazol-5-yl)ureido)naphthalen-1-yloxy)pyridin-2-yl)pyrrolidine-1-carboxamide]	7.3 nM	400 nM	3.2 nM	0.6 nM	17 nM	1.9 nM	−0.4%	−50.0%

Now those with a lower IC50 [2], led by results:

IC50 [2]	IC50 [3]	IC50 [4]	EC50 [6]	IC50 [7]	Compound	IC50 [1]	MTT Assay (Viability) 4 h d-U937 [5]	MTT Assay (Viability) 24 h d-U937 [5]
2.3 nM	104 nM	1.6 nM	1.5 nM	4.7 nM	COc1ccc(-n2nc(C(C)(C)C)cc2NC(=O)Nc2ccc(Oc3ccnc(NC(=O)N4CCN(C)CC4)c3)c3ccccc23)cc1 [Example 10, N-(4-(4-(3-(3-tert-Butyl-1-(4-methoxyphenyl)-1H-pyrazol-5-yl)ureido)naphthalen-1-yloxy)pyridin-2-yl)-4-methyl piperazine-1-carboxamide]	3.5 nM	−12.5%	−21.2%
1.4 nM	203 nM	0.5 nM	0.6 nM	2.7 nM	COc1ccc(-n2nc(C(C)(C)C)cc2NC(=O)Nc2ccc(Oc3ccnc(NC(=O)N4CCOCC4)c3)c3ccccc23)cc1 [Example 9, N-(4-((4-(3-(3-tert-Butyl-1-(4-methoxyphenyl)-1H-pyrazol-5-yl)ureido)naphthalen-1-yl)oxy)pyridin-2-yl)morpholine-4-carboxamide]	2.1 nM	−5.7%	18.6%
1.2 nM	228 nM	1.6 nM	0.6 nM	16.6 nM	COc1ccc(-n2nc(C(C)(C)C)cc2NC(=O)Nc2ccc(Oc3ccnc(NC(=O)N4CCCC4)c3)c3ccccc23)cc1 [Example 8, N-(4-(4-(3-(3-tert-Butyl-1-(4-methoxyphenyl)-1H-pyrazol-5-yl)ureido)naphthalen-1-yloxy)pyridin-2-yl)pyrrolidine-1-carboxamide]	1.4 nM	−20.1%	−77.9%
0.7 nM	88.9 nM	0.4 nM	0.66 nM	1.7 nM	COCC(=O)Nc1cc(Oc2ccc(NC(=O)Nc3cc(C(C)(C)C)nn3-c3ccc(O)cc3)c3ccccc23)ccn1 [Example 5, N-(4-((4-(3-(3-(tert-Butyl)-1-(4-hydroxyphenyl)-1H-pyrazol-5-yl)ureido)naphthalen-1-yl)oxy)pyridin-2-yl)-2-methoxyacetamide]	6.7 nM	4.5%	−19.9%
0.1 nM	138 nM	0.7 nM	0.03 nM	4.1 nM	COc1ccc(-n2nc(C(C)(C)C)cc2NC(=O)Nc2ccc(Oc3ccnc(NC(=O)N(C)C)c3)c3ccccc23)cc1 [Example 7, 3-(4-(4-(3-(3-tert-Butyl-1-(4-methoxyphenyl)-1H-pyrazol-5-yl)ureido)naphthalen-1-yloxy)pyridin-2-yl)-1,1-dimethylurea]	1.9 nM	−13.3%	−39.1%
